In patent US9622469B2, “Crosslink breakers for preservation of biological substances” (priority 2013, dated 2017):
Marks after values point to notes of the source that are not given here.

Experiments:
[1] = Cleavage of PPD (3) to benzoic acid by NHC precursors, Method B (MeCN co-solvent); format: biochemical; conditions: for Yield (%) of benzoic acid from cleavage of 3: MeCN/pH 7.4 phosphate buffer, 37° C., LCMS peak integration with respect to 3, background 5%; for Benzoic acid formation from 3 (in words): Method B screen of NHC precursors
Method: (§1) Dicarbonyl cleavage reactions were performed using either the method described in Vasan et al., An agent cleaving glucose-derived protein crosslinks in vitro and in vivo, Nature (1996) Vol. 382, pp. 275-278 (Method A) or a modified method with MeCN as a co-solvent (Method B).
(§2) 60 mM solution of dicarbonyl substrate (45 μmol) in MeCN (0.75 ml) was added to 20 mM solution of NHC (15 μmol) in 0.15 M pH 7.4 sodium phosphate buffer (0.75 ml) and kept stirred at 37° C. At stated times, 75 μl aliquots were taken, diluted with 50% MeCN/H2O (425 μl) and analyzed by LCMS with 2,4-dihydroxyquinoline (248 μM) as an internal standard. The cleavage products were quantified by peak integration against the calibration curves.
Thus, our first goal in these studies was to assess the ability of various NHC precursors to induce the degradation of the dicarbonyl model substrate (PPD, 3). To this end, we screened the thiazolium (4-6), benzothiazolium (7), triazolium (8,9) and imidazolium (10) halide substructures shown in Table 1.

[2] = system: HOD alloantigen on stored RBCs; test: Immunogenicity of stored blood upon transfusion (anti-HOD IgG ELISA); format: in vivo, mouse; conditions: blood stored 14 days, transfused into B6 mice, 14 days following transfusion
Method: Leuko-reduced mouse blood was stored under typical storage conditions for up to 14 days, in either OCR6043, control compound, or without any treatment. FIG. 2A illustrates an analysis of glucose in the serum from the stored blood was evaluated using a glucose oxidase enzymatic assay. […] FIG. 2B illustrates the AGE precursor levels on RBCs were measured using a dicarbonyl-specific fluorophore that was developed in-house. The time dependent increase in the AGE precursor levels was dampened in the presence of OCR6043. FIG. 2C illustrates mouse blood that was stored for 14 days, was evaluated for its immunogenicity upon transfusion, by testing for IgGs against an alloantigen on the RBCs (HOD=HEL-OVA-Duffy).
OCR6043 treatment decreases immunogenicity, and enhances post-transfusion recovery of stored mouse blood. Leukoreduced mouse blood was stored under typical storage conditions for up to 14 days in either OCR6043 or without any treatment. This mouse blood was evaluated for its immunogenicity upon transfusion by testing for IgGs against an alloantigen on the RBCs (HOD=HEL-OVA-Duffy).
As described herein, the stored blood has an HOD marker allowing facile detection after transfusion. We transfused […] of stored blood into B6 mice (not expressing the HOD antigen). […] The anti-HOD IgG response was evaluated using standard ELISA techniques described in Hendrickson et at.

[3] = physiological conditions; cited from earlier work
mouse RBC = test: Storage of leukoreduced mouse blood in CPDA-1 at 4° C.: hemolysis and intact RBC count; format: cell-based; conditions: CPDA-1 buffer
Method: FIG. 1 illustrates OCR6043-mediated prolonging of the integrity of stored RBCs. Leuko reduced mouse blood was stored under FDA-approved storage conditions (CPDA-1 buffer at 4° C.) for up to 13 days, in either OCR6043, control compound (structurally similar to OCR6043, but nonfunctional as a AGE crosslink breaker), or without any additive.
This solution was stored at 4° C. according to FDA-approved conditions for 13 days. […] The steps to collect HOD blood from mice and the addition of the FDA-approved storage buffer CPDA are described in Hendrickson et al., Transfusion of fresh murine red blood cells reverses adverse effects of older stored red blood cells, Transfusion (2011) Vol. 12, pp. 2695-2702.
We also counted the intact RBCs using a hemocytometer after 13 days of storage as also depicted in FIG. 1.

[4] = Cleavage of PPD by NHC precursors, Method A (alcoholic co-solvent); format: biochemical; conditions: for Combined % Yield (PhCO2H, PhCO2Me): co-solvent MeOH
Method: as §1
PPD (21 μl, 156 μmol) was added to a murky solution of NHC (2 or 4, 71 μmol) in 50% MeOH/0.5 M pH 7.4 sodium phosphate buffer (3.5 ml/3.5 ml; final conc. 10 mM NHC, 22 mM PPD) and kept stirred at 37° C. Approximately 0.5 ml aliquots were taken at stated times and analyzed by HPLC. Experiments using EtOH or iPrOH as a co-solvent were done in the same manner. Concentrations of benzoic acid and benzoate esters were determined by peak integration against the calibration curves.
Having learned that ALT-711 performed best among NHCs evaluated for PPD cleavage, we sought to test its substrate scope versus its N-benzyl counterpart (4). We therefore measured product distribution and yield while varying the co-solvent used to solubilize dicarbonyl substrates. As summarized in Table 2, we first investigated the performance of alcoholic co-solvents in PPD cleavage reactions. […] Despite this, however, the product distributions differed substantially: ALT-711 (2) predominantly afforded benzoic acid (PhCO2H:PhCO2Me=3.2:1, Entry 2), whereas 4 mostly gave rise to methyl benzoate (PhCO2H:PhCO2Me=1:2.2, Entry 4). Further replacement of the co-solvent with EtOH and i-PrOH in 4-catalyzed reactions led to a decrease in the proportion of ester production, still without altering overall yield (Entries 5 and 6).

[5] = NHC-mediated cleavage of benzil (15), Method B; format: biochemical; conditions: LCMS, with respect to dicarbonyl
Method: as §2
(§3) Our efforts to investigate the scope of thiazolium salt-mediated reactions with dicarbonyls began with bis-alkyl diketone 14 (Table 3, Entry 1). This substrate is cleaved cleanly by 2, and affords acid 18 in 82% yield. NHC precursor 4, on the other hand, provides 18 in only 14% yield (Entry 2). The efficiency of dicarbonyl cleavage reactions decreases substantially in the case of benzil (15, Entry 3), which affords benzoic acid in 14% and 1% yield following exposure to 2 and 4, respectively.

[6] = NHC-mediated cleavage of bis-alkyl diketone 14, Method B; format: biochemical; conditions: LCMS, with respect to dicarbonyl
Method: as §2, §3

[7] = NHC-mediated reaction with α-keto aldehyde phenylglyoxal (16), Method B; format: biochemical; conditions: LCMS, phenylglyoxal alone gives 25% benzoic acid
Method: as §2
Phenylglyoxal hydrate (16; 114 mg, 0.75 mmol, 2 eq) was added to a solution of ALT-711 (2; 100 mg, 0.37 mmol) in 50% MeCN/0.15 M pH 7.4 phosphate buffer (total vol. 37 ml) and kept stirred at room temperature for 15 mins. The reaction mixture was cooled to −20° C. to precipitate out sodium phosphate as white crystals. The supernatant was transferred, and the residue was washed with MeCN and combined with the supernatant. This yellow clear solution was concentrated at room temperature to remove MeCN and purified by HPLC (16-27MeCN over 31 min). […]
Reactions involving α-keto aldehyde derivatives 16 and 17 followed an unexpected course. Treatment of these substrates with 2 led to instantaneous, high-yield production of a diastercomeric mixture of cycloadducts (19 and 20) that decompose to complex mixtures under the reaction conditions with half-lives of approximately 3 h Structures were determined based on in-depth NMR analysis (see Supplementary Material).

Row | Compound | Yield (%) of benzoic acid from cleavage of 3 ([1]; Method B) | Benzoic acid formation from 3 (in words) [1] | further results
1 | Cc1sc[n+](Cc2ccccc2)c1C | 20% |  | 
2 | O=C(C[n+]1ccsc1)c1ccccc1.[Br-] [Compound 1, N-phenacylthiazolium bromide] |  |  | Immunogenicity upon transfusion (IgG against HOD alloantigen) [2]: lower immunogenicity; Half-life of decomposition [3]: 44 min; RBC viability / intact RBCs (hemocytometer) (mouse RBC; 13 days): higher levels of intact RBCs; Combined % Yield (PhCO2H, PhCO2Me) [4]: 39%
3 | Cc1sc[n+](Cc2ccccc2)c1C.[Cl-] [Compound 4, 3-benzyl-4,5-dimethylthiazol-3-ium chloride] |  | substantially lower yields | % Yield of PhCO2H from substrate 15 (benzil) [5]: 1%; % Yield of acid 18 from substrate 14 [6]: 14%; Combined % Yield (PhCO2H) ([1]; co-solvent MeCN, Method B, LCMS, with respect to dicarbonyl): 20%; % Yield of PhCO2H from substrate 16 [7]: 30^c %; Combined % Yield (PhCO2H, PhCO2Et) ([4]; co-solvent EtOH): 60%; Combined % Yield (PhCO2H, PhCO2Me) [4]: 62%; Combined % Yield (PhCO2H, PhCO2iPr) ([4]; co-solvent i-PrOH): 58%
4 | Cc1c(CCO)sc[n+]1Cc1ccccc1.[Cl-] [Compound 5] |  | substantially lower yields | 
5 | [Cl-].c1ccc(C[n+]2csc3ccccc32)cc1 [Compound 7] |  | no observable levels of benzoic acid | 
6 | Cn1c[n+](Cc2ccccc2)cn1.[Cl-] [Compound 8] |  | no observable levels of benzoic acid | 
7 | Cn1c[n+](CC(=O)c2ccccc2)cn1.[Cl-] [Compound 9] |  | restores the reactivity to a small extent | 
8 | Cn1cc[n+](CC(=O)c2ccccc2)c1.[Cl-] [Compound 10] |  | did not produce any benzoic acid | 
9 | Cn1c[n+](CC(=O)c2ccccc2)cn1.[Cl-] [MPTC, 1-methyl-4-phenacyl-triazolium chloride] |  |  | Hemolysis of stored blood (supernatant appearance) (mouse RBC; up to 13 days, 12 mM): hemolysis
10 | Cc1sc[n+](CC(=O)c2ccccc2)c1C.[Cl-] [drawing 8] | 60% |  | 
11 | Cc1c(CCO)sc[n+]1Cc1ccccc1.[Cl-] [drawing 10] | 14% |  | 
12 | [Cl-].c1ccc(C[n+]2csc3ccccc32)cc1 [drawing 12] | 0^b % |  | 
13 | Cn1c[n+](Cc2ccccc2)cn1.[Cl-] [drawing 13] | 0^b % |  | 
14 | Cn1c[n+](CC(=O)c2ccccc2)cn1.[Cl-] [drawing 14] | 12% |  | 
15 | Cn1cc[n+](CC(=O)c2ccccc2)c1.[Cl-] [drawing 15] | 0^b % |  | 
